According to ChEMBL document CHEMBL5465560, “Selectivity Literature for EUbOPEN Chemogenomic Library” (2024):
Each block holds one compound with its values, some of them ahead of it.

How the values were obtained:
[1] = test system: Tyrosine-protein kinase ABL1 (Homo sapiens), P00519 [Q252H]; experiment: Selectivity interaction (KinomeScan (DiscoverX)) EUB0000666a ABL1; settings: at 10 µM
[2] = biological target: Kappa-type opioid receptor (Homo sapiens, UniProt P41145); experiment: Selectivity interaction (Panel of kinases, GPCRs, ion channels and transporters (enzymatic assay)) EUB0000266bCl OPRK1
Kappa-type opioid receptor, sequence (P41145 whole entry): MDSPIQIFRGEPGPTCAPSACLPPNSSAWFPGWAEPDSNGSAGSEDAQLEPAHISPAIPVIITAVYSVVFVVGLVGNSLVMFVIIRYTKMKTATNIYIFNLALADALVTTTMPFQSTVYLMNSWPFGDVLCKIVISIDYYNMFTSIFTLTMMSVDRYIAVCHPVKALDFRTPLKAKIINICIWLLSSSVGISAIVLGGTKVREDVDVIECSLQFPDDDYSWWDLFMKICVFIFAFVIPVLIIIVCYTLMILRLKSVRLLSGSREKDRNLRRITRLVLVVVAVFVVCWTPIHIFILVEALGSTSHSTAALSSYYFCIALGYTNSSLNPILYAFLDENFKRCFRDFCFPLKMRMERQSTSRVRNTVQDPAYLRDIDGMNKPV

[3] = biological target: T1, Mitogen-activated protein kinase 13 (Homo sapiens) (UniProt O15264); experiment: Selectivity interaction (Upstate Kinase Profiler service (Millipore)) EUB0000056c MAPK13; settings: at 1 µM
T1 sequence (whole entry): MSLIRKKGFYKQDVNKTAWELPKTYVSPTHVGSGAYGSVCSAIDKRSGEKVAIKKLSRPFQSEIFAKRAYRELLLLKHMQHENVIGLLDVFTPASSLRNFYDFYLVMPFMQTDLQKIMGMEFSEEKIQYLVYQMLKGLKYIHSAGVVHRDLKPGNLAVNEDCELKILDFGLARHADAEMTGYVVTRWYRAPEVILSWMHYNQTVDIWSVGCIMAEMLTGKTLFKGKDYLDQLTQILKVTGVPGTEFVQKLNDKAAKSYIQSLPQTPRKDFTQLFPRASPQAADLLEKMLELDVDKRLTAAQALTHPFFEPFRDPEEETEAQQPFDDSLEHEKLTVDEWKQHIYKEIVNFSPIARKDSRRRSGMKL

[4] = biological target: Tyrosine-protein kinase Fgr (Homo sapiens) (UniProt P09769); experiment: Selectivity interaction (ActivX KiNativ screen (kinase selectivity in THP-1 cell lysates)) EUB0000639a FGR; assay type: subcellular; settings: lysate
Tyrosine-protein kinase Fgr (Homo sapiens), sequence (P09769 2-529 limits assumed): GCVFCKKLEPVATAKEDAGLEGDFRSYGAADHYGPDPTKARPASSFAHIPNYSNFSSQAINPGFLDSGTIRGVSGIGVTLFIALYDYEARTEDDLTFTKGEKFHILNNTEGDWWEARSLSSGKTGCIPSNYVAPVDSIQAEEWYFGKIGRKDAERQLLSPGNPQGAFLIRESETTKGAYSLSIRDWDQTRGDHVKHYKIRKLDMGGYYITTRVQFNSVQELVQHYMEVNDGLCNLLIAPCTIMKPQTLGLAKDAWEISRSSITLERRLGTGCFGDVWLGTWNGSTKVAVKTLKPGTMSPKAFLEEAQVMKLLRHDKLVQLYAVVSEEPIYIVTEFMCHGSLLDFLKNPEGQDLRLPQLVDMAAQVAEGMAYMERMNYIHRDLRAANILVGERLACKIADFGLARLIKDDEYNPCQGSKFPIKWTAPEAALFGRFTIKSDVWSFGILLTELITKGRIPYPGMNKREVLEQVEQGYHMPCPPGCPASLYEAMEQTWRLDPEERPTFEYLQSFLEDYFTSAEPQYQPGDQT

[5] = biological target: Ribosomal protein S6 kinase alpha-1 (Homo sapiens, UniProt Q15418); experiment: Selectivity interaction (ActivX KiNativ screen (kinase selectivity in THP-1 cell lysates)) EUB0000639a RPS6KA1; assay type: subcellular; settings: lysate, at 0.01 µM
[6] = biological target: T2, PAN2-PAN3 deadenylation complex subunit PAN3 (Homo sapiens) (UniProt Q58A45); experiment: Selectivity interaction (ActivX KiNativ screen (kinase selectivity in THP-1 cell lysates)) EUB0000639a PAN3; assay type: subcellular; settings: lysate
T2 sequence (whole entry): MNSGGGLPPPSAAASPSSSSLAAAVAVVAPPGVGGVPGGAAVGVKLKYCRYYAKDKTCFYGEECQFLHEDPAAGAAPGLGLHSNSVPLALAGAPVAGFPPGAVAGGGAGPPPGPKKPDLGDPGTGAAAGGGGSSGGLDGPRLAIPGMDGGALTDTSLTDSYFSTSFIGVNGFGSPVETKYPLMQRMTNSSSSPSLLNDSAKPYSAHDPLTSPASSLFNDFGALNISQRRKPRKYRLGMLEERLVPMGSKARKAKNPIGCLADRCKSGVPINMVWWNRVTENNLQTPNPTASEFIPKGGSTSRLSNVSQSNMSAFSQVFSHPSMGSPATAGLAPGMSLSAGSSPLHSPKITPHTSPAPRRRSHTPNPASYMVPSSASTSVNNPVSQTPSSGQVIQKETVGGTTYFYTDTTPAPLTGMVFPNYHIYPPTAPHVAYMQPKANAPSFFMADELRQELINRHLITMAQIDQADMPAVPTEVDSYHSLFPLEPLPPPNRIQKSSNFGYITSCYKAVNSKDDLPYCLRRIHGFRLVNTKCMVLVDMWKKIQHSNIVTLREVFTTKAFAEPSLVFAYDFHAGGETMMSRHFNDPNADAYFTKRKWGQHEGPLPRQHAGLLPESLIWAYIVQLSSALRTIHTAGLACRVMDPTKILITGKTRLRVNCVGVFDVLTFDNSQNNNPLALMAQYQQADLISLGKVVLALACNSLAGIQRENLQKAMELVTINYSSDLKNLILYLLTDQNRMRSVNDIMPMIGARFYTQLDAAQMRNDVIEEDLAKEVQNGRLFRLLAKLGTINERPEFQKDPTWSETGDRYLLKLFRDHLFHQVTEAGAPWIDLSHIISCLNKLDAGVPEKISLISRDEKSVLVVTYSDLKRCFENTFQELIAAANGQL

[7] = biological target: Fibroblast growth factor receptor 2 (Homo sapiens) (UniProt P21802); experiment: Selectivity interaction (KinomeScan (DiscoverX)) EUB0000695a FGFR2; settings: at 100 nM
[8] = biological target: Fibroblast growth factor receptor 3 (Homo sapiens, UniProt P22607); experiment: Selectivity interaction (Kinase panel (DSF assay)) EUB0001559a FGFR3
Fibroblast growth factor receptor 3, sequence (P22607 23-806 limits assumed): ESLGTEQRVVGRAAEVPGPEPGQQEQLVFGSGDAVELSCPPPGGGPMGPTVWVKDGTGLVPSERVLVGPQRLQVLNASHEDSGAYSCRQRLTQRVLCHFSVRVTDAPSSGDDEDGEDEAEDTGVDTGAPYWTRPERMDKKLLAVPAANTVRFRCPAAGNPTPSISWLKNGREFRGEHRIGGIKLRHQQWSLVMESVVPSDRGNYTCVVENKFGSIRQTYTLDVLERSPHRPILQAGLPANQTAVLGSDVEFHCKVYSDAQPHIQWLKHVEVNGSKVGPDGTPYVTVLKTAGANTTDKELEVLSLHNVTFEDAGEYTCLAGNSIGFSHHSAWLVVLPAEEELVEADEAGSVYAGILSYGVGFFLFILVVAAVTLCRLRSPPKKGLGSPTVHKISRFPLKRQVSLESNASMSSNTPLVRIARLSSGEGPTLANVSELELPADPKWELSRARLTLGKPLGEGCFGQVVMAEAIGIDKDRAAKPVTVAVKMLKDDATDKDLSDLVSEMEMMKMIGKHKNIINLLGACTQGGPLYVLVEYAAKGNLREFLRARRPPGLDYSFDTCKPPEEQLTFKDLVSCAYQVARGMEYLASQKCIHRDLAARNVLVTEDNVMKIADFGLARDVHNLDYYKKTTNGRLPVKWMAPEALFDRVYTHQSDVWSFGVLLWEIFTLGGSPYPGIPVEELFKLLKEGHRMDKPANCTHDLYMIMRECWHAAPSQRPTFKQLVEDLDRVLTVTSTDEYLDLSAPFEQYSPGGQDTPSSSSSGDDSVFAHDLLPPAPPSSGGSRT

[9] = biological target: Tyrosine-protein kinase receptor Tie-1 (Homo sapiens) (UniProt P35590); experiment: Selectivity interaction (KinomeScan (DiscoverX)) EUB0001049a TIE1; settings: at 1 µM
Tyrosine-protein kinase receptor Tie-1 (Homo sapiens), sequence (P35590 whole entry): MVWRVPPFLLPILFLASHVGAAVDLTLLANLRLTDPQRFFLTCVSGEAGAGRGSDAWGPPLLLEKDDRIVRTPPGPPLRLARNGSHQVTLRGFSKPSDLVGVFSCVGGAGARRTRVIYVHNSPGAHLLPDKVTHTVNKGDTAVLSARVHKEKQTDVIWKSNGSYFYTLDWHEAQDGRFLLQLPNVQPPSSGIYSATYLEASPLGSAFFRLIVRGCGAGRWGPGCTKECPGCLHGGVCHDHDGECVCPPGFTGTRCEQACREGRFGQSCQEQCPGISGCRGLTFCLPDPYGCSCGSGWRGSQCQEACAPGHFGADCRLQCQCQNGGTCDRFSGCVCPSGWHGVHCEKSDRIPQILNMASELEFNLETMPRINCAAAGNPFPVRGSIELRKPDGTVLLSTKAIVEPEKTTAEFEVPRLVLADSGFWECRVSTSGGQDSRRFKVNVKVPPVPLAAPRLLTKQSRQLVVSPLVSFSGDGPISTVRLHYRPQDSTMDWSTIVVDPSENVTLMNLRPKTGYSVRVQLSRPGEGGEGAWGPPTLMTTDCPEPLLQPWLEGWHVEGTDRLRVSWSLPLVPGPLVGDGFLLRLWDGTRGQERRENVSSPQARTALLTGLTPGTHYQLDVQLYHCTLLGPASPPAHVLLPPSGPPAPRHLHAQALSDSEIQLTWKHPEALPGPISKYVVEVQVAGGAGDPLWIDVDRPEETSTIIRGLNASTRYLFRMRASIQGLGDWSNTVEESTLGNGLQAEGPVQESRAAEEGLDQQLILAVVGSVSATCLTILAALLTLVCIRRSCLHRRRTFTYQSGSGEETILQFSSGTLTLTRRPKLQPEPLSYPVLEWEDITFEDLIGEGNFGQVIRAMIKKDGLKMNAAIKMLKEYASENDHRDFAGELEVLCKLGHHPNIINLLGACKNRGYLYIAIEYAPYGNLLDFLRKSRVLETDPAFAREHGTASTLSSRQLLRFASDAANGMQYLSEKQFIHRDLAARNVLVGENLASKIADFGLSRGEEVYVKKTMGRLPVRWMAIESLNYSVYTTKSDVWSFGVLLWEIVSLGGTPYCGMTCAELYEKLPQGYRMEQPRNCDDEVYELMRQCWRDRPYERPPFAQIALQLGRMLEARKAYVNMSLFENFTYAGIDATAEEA

[10] = biological target: Insulin receptor-related protein (Homo sapiens) (UniProt P14616); experiment: Selectivity interaction (Ambit KINOMEscan and KiNATiv profiling in Jurkat cells) EUB0000090b INSRR; assay type: cell-based; settings: at 1 µM
[11] = biological target: T3, Membrane-associated tyrosine- and threonine-specific cdc2-inhibitory kinase (Homo sapiens) (UniProt Q99640); experiment: Selectivity interaction (KinomeScan (DiscoverX)) EUB0000655a PKMYT1; settings: at 10 µM
T3 sequence (whole entry): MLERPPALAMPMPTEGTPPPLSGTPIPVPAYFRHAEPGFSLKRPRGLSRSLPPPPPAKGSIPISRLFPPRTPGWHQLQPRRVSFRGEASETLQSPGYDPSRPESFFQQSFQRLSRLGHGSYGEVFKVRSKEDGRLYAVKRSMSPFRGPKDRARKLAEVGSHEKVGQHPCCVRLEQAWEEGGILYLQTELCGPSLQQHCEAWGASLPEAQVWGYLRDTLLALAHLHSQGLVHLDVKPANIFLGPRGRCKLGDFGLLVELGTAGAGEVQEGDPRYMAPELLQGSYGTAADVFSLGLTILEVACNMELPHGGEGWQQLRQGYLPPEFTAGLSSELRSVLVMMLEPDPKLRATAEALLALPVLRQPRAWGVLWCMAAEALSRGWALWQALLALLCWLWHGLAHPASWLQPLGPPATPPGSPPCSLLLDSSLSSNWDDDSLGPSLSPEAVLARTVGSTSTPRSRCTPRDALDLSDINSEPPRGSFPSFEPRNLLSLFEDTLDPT

[12] = biological target: STE20-like serine/threonine-protein kinase (Homo sapiens, UniProt Q9H2G2); experiment: Selectivity interaction (KinomeScan (DiscoverX)) EUB0000045b SLK
STE20-like serine/threonine-protein kinase, sequence (Q9H2G2 whole entry, looked up): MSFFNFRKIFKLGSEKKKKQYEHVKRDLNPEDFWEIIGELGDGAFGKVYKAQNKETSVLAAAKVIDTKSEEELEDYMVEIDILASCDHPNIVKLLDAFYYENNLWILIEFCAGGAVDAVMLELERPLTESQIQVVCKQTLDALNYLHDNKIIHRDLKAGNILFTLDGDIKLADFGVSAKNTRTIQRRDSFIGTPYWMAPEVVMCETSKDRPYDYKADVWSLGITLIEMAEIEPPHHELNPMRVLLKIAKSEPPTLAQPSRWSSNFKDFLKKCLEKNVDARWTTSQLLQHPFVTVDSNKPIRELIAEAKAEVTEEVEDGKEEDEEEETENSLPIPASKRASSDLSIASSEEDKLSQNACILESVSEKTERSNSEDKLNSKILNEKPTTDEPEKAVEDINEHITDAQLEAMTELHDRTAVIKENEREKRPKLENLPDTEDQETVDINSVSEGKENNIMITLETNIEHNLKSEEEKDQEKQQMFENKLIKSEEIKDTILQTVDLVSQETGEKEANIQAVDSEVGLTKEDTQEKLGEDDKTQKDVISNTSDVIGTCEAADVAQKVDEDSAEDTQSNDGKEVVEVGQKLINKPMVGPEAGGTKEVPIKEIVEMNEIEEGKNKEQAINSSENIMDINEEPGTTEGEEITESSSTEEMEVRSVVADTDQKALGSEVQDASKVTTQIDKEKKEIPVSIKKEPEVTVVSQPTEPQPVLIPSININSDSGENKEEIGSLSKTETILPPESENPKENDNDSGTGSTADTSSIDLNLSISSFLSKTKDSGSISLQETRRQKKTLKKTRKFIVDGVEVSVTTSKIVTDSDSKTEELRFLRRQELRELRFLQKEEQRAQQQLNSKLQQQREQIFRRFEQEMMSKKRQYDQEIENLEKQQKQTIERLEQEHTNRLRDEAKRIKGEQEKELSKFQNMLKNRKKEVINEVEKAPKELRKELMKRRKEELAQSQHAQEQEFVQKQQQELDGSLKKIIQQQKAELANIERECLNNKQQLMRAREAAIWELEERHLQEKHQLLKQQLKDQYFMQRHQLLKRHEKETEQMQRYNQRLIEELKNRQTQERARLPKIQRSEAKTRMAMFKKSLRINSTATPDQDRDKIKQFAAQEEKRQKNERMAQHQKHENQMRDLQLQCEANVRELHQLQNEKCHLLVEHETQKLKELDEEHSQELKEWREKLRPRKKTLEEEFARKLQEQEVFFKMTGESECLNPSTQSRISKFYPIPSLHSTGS

[13] = test system: Epidermal growth factor receptor (Homo sapiens), P00533 [UNDEFINED MUTATION]; experiment: Selectivity interaction (KinomeScan (DiscoverX)) EUB0001079a EGFR; settings: at 1 µM
[14] = biological target: AP2-associated protein kinase 1 (Homo sapiens, UniProt Q2M2I8); experiment: Selectivity interaction (KinomeScan (DiscoverX)) EUB0001079a AAK1; settings: at 1 µM
[15] = biological target: Tyrosine-protein kinase Blk (Homo sapiens) (UniProt P51451); experiment: Selectivity interaction (KinomeScan (DiscoverX)) EUB0000618a BLK; settings: at 10 µM
Tyrosine-protein kinase Blk (Homo sapiens), sequence (P51451 2-505 limits assumed): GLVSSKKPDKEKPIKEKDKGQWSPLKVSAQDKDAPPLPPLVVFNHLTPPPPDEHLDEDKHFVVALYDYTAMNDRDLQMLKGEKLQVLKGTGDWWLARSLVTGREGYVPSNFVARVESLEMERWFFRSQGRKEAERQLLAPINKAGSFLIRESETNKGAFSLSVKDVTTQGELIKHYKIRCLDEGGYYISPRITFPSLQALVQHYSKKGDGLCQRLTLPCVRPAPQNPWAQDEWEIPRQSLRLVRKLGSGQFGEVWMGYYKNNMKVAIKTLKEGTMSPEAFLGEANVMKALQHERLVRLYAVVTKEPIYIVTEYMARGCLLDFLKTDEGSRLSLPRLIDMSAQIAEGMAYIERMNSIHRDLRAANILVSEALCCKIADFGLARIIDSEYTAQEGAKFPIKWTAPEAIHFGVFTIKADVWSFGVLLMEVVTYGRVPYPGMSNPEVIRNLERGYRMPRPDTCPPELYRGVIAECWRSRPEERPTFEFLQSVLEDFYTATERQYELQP

Structure (SMILES): O=C(NOC[C@H](O)CO)c1ccc(F)c(F)c1Nc1ccc(I)cc1F
- % of control [1]: 100%

- pXC50 [2]: > 4 M
Structure (SMILES): CCn1c(-c2nc3cc(C(=O)N4CCCC(N)C4)ccc3n2C)cc2ccccc21 (centres undefined)

- % of inhibition [3]: 6%
Structure (SMILES): Cc1ccc(-c2ccc3c(ccc4sc5c(c43)NC[C@@H](C)NC5=O)n2)cn1

- % of inhibition ([4]; at 0.01 µM): -11.8%
- % of inhibition ([4]; at 0.04 µM): -4.6%
- % of inhibition ([4]; at 0.2 µM): -12.7%
- % of inhibition ([4]; at 1 µM): -24.1%
- % of inhibition ([4]; at 5 µM): -17.9%
- % of inhibition [5]: 25.4%
- % of inhibition ([6]; at 0.01 µM): 20.4%
- % of inhibition ([6]; at 0.04 µM): -4.3%
- % of inhibition ([6]; at 0.2 µM): -4.4%
- % of inhibition ([6]; at 1 µM): -2.8%
- % of inhibition ([6]; at 5 µM): -19.6%
Structure (SMILES): CC[C@@H]1[C@H](F)C(=O)N[C@@H]1COc1nccc2cc(C(N)=O)c(OC)cc12 [ZIMLOVISERTIB]

Structure (SMILES): Cc1cc(F)c(C(=O)Nc2cccc(-c3nncn3C(C)C)n2)cc1-n1cnc(C2CC2)c1
- % of control [7]: 97%

- dTM [8]: -0.3 K
Structure (SMILES): CN(C(=O)c1cnn2cccnc12)c1cc2c(cc1N1CCOCC1)C(=O)N(C[C@@H](F)C(C)(C)O)C2

Structure (SMILES): COc1cc(Nc2nc(C)cc(-c3cnn4nc(OC)ccc34)n2)cc(C(F)(F)F)c1
- % of control [9]: 84%

Structure (SMILES): CN(C)C/C=C/C(=O)Nc1ccc(C(=O)N2CCCC(Nc3ncc(Cl)c(-c4c[nH]c5ccccc45)n3)C2)cc1 (centres undefined)
- % of control [10]: 100%

Structure (SMILES): CN(C)CCOc1ccc(-c2nc(-c3ccncc3)c(-c3ccc4c(c3)CC/C4=N\O)[nH]2)cc1
- % of control [11]: 100%

Structure (SMILES): C=CC(=O)Nc1cc(-n2c(=O)ccc3cnc4ccc(-c5ccc(NS(C)(=O)=O)cc5)cc4c32)ccc1C
- % of control ([12]; at 1 µM): 59%
- % of control ([12]; at 10 µM): 100%

Structure (SMILES): Nc1cnc(N2CCc3cc(S(=O)(=O)Nc4c(F)cc(Cl)cc4F)cc(N4CCCC4=O)c32)nc1 [TP-020n]
- % of control [13]: 71%
- % of control [14]: 100%

Structure (SMILES): O[C@H]1CC[C@H](Nc2ncc3nc(Nc4c(F)cc(F)cc4F)n([C@H]4CCOC4)c3n2)CC1
- % of control [15]: 98%
